Experiment [1] has as its system HGPS fibroblasts. Description: Western blot analysis of progerin and lamin A/C levels in HGPS fibroblasts. Type of experiment: cell-based, human. To be noted: HGPS cells. The method, then:
Primary dermal fibroblasts from subjects with HGPS were obtained from the Progeria Research Foundation. Two different fibroblasts derived from HGPS patients carrying the LMNA mutation G608G were used: HGADFN003 (person) and HGADFN127 (person). Control dermal fibroblasts were obtained from the Coriell Institute for Medical Research (Camden, NJ). The following cell lines were used: GMO1651C and GMO3349C. All cells were maintained at -80 °C in 90% fetal bovine serum (FBS) and 10% dimethyl sulfoxide (DMSO). The Institutional Review Board of the Technische Universität München (TUM) approved the use of human cells established from skin biopsies from patients with HGPS and unaffected individuals in this study.
Control and HGPS fibroblasts were cultured at 37 °C and 5% CO2 in Dulbecco's Modified Eagle Media (DMEM) (Gibco by life technologies) containing 15% FBS (Gibco by life technologies), 1% L-glutamine (Gibco by life technologies), 1% penicillin/streptomycin (Gibco by life technologies), and 2 ml of gentamycin (Gibco by life technologies). Mock-treated and baricitinib-treated fibroblasts were cultured in parallel. […] Three times a week the cells were re-fed with new culture media.
(§1) A similar quantitative Western Blot analysis was carried out in wild-type mouse fibroblasts compared to fibroblasts obtained from the progerin mouse model (see Figure 17).
Subsequently, the cell suspension was centrifuged for 5 min at 1200 rpm, the supernatant was aspirated, and the cells were washed with 4.5 ml PBS (Sigma). These steps were performed thrice in order to assure that all culture media is removed. Then, the cells were transferred to Eppendorf tubes with 1 ml PBS (Sigma) and the tubes were centrifuged for 5 min at 1200 rpm. […]
(§2) The total protein concentration of each gel electrophoresis loading sample was determined by using a series of dilutions of known concentrations of bovine serum albumin (BSA) to obtain a standard curve. […] The total protein concentration of each gel electrophoresis loading sample was calculated based on this standard curve. […]

Experiment [2] deals with mouse fibroblasts from a progerin mouse model. Description: Western blot analysis of progerin levels in mouse fibroblasts from progerin mouse model. To be noted: mouse progerin fibroblasts (LMNA G609G/G609G), 3 µM. Type of experiment: cell-based. The method, then:
as §1
Subsequently, the cell suspension was centrifuged for 5 min at 1200 rpm, the supernatant was aspirated, and the cells were washed with 4.5 ml PBS (Sigma). These steps were performed thrice in order to assure that all culture media is removed. Then, the cells were transferred to Eppendorf tubes with 1 ml PBS (Sigma) and the tubes were centrifuged for 5 min at 1200 rpm. After fully aspirating PBS, the cell pellets were obtained. Following the generation of cell pellets, the next action was the preparation of the gel electrophoresis loading samples. The first step was the addition of 100 µl per 10^7 cells of Laemmli Buffer-inhibitor mix to each Eppendorf tube to lyse the fibroblasts and denature the proteins of the lysate. […]
as §2

Experiment [3] concerns control and progerin mouse cells. Description: Cell growth (proliferation) of mouse fibroblasts. Type of experiment: cell-based. The settings on record: 3 µM. The protocol: First, control and HGPS fibroblasts were cultured at 37 °C and 5% CO2 in culture media without drug. […] Then, each type of fibroblasts was seeded in triplicate with 150.000 cells/dish at the four different conditions. After 4 days and 9 days, the number of cells harvested in each condition was counted, also using a CASY® Cell Counter (Roche). The cumulative population doubling was determined using equation 5. Cumulative Population Doubling = 3,32 × log((cells harvested)/(cells seeded)) [formula]

Experiment [4] concerns HGPS fibroblasts. The experiment in a line: Autophagy measurement in HGPS fibroblasts. Type of experiment: cell-based, human. The settings on record: 0.25-1 µM, 4 or 9 days. The protocol: This assay uses monodansylcadaverine (MDC), a fluorescent compound that is incorporated into multilamellar bodies by both an ion trapping mechanism and the interaction with membrane lipids, as a probe for the detection of autophagic vacuoles in cells.
The staining solution was prepared by diluting Cell-Based Monodansylcadaverine 1:1000 in Cell Based Assay Buffer. The assay buffer was prepared by dissolving a Cell-Based Assay Buffer Tablet in 100 ml of distilled water. The plate was then incubated at 37 °C for 10 min and centrifuged for 5 min at 1200 rpm. Next, the supernatant was removed, 100 µl of Cell-Based Assay Buffer was added to each well and the plate was again centrifuged in the same conditions. […] Considering that the autophagy level in mock-treated control fibroblasts is 100%, the level of autophagy relative to mock-treated control fibroblasts for each condition was determined (see Figure 5).
Cell-Based Tamoxifen (100 mM), a known inducer of autophagy, was used as a positive control. This compound was initially added to a control culture diluted 1:50.000 into the culture media. Cell Based Assay Buffer was used as a negative blank control.

The test system of experiment [5] is HGPS fibroblasts. The experiment in a line: 20S proteasome activity measurement in HGPS fibroblasts. Type of experiment: cell-based, human. The settings on record: 0.25-1 µM, 4 or 9 days. The method, then:
This assay uses a specific 20S substrate (SUC-LLVY-AMC) which, upon cleavage by the active enzyme, generates a fluorescent product that can be detected.
Next, the plate was again centrifuged in the same conditions, the supernatant was aspirated, and 100 µl of 20S Proteasome Lysis Buffer was added to each well. Then, the plate was incubated with gentle shaking for 30 min at room temperature to allow cell lysis and it was centrifuged at 1300 rpm for 7 min. Following centrifugation, 90 µl of the supernatant from each well was transferred to a new empty well together with 10 µl of substrate solution. The substrate solution was prepared by adding 25 µl of 20S Proteasome Substrate (SUC-LLVY-AMC) to 1 ml of 20S Proteasome Assay Buffer. […] Considering that the proteasomal activity in mock-treated control fibroblasts is 100%, the proteasomal activity relative to mock-treated control fibroblasts was calculated for each condition.
A Jurkat cell lysate supernatant which contains a high level of 20S activity was used as positive control (20S Proteasome Positive Control) and 20S Proteasome Assay Buffer was used as negative blank control.

The test system of experiment [6] is HGPS fibroblasts. Description: Intracellular ROS measurement in HGPS fibroblasts. The class given is cell-based, human. The settings on record: 0.25-1 µM, 4 or 9 days.
Description: This assay uses 2',7'-dichlorofluorescein diacetate (DCFDA), a cell permeant reagent that after entering the cell is deacetylated by cellular esterases to a non-fluorescent compound that is later oxidized by ROS into 2',7'-dichlorofluorescein (DCF). DCF is highly fluorescent and can be detected by fluorescence spectroscopy.
First, control and HGPS fibroblasts were harvested in the above mentioned conditions and, following trypsinization, the number of cells was counted with a CASY® Cell Counter (Roche). The fibroblasts from each condition were seeded in triplicate in a 96 well plate with 32.000 cells/well in 100 µl of culture media with the appropriate drug concentration, and the plate was incubated at 37 °C for 8 h. After the incubation, the culture media was aspirated, 100 µl of 1 x Buffer were added to each well, and the plate was centrifuged at 1200 rpm for 5 min. […] Following the addition of 1x Buffer, fluorescence was measured immediately in a FLUOstar Omega Microplate Reader (Omega BMG Labtech) using an excitation wavelength of 485 nm and an emission wavelength of 535 nm. Considering that the ROS level in mock-treated control fibroblasts is 100%, the ROS levels relative to mock-treated control fibroblasts were calculated for each condition. […]
Experiment [7] deals with HGPS fibroblasts. The experiment in a line: Intracellular ATP measurement in HGPS fibroblasts. To be noted: 0.25-1 µM, 4 or 9 days. Type of experiment: cell-based, human. The protocol:
This assay relies in the properties of a proprietary thermostable luciferase which generates a stable luminescent signal that is proportional to the amount of ATP in the cells by catalyzing the mono-oxygenation of luciferin in the presence of Mg^2+, ATP and molecular oxygen.
This reagent is obtained by transferring 10 ml of CellTiter-Glo® Buffer into an amber bottle containing CellTiter-Glo® Substrate and then mixing it gently by vortexing. The plate was then mixed for 2 min in an orbital shaker to induce cell lysis and following that, it was incubated at room temperature for 10 min to stabilize the luminescent signal. Finally, luminescence was recorded in a FLUOstar Omega Microplate Reader (Omega BMG Labtech). Considering that the ATP level in mock-treated control fibroblasts is 100%, the ATP levels relative to mock-treated control fibroblasts were calculated for each condition.
Culture media without cells was used as a blank negative control to assure there is no interference with the luciferase reaction.

Experiment [8] deals with mouse fibroblasts from a progerin mouse model. The experiment in a line: Autophagy measurement in mouse fibroblasts (monodansylcadaverine staining). To be noted: 3 µM.
Protocol: First, control and HGPS fibroblasts were harvested in the above mentioned conditions and, following trypsinization, the number of cells was counted with a CASY® Cell Counter (Roche). Afterwards, fibroblasts from each condition were seeded in triplicate in a 96 well plate with 32.000 cells/well in 100 µl of culture media with the appropriate drug concentration, and the plate was incubated at 37 °C for 8 h. After centrifuging the 96 well plate at 1200 rpm for 5 min, the culture media was aspirated from each well and 100 µl of staining solution was added. The staining solution was prepared by diluting Cell-Based Monodansylcadaverine 1:1000 in Cell Based Assay Buffer. The assay buffer was prepared by dissolving a Cell-Based Assay Buffer Tablet in 100 ml of distilled water. […] Lastly, after removing the supernatant, 100 µl of Cell-Based Assay Buffer was added to each well and the autophagic vacuole staining intensity was immediately detected in a FLUOstar Omega Microplate Reader (Omega BMG Labtech) using an excitation wavelength of 355 nm and an emission wavelength of 520 nm.

SMILES strings stand for the structures. Several values for one entry are separate records, joined by “and”; a condition that tells them apart may be missing. Equal entries are not always repeated.

Take `CCS(=O)(=O)N1CC(CC#N)(n2cc(-c3ncnc4[nH]ccc34)cn2)C1` [baricitinib]: the “reduction of levels of progerin” value in the experiment with HGPS fibroblasts [1] (4 days treatment with 1 µM, anti-progerin and anti-lamin A/C antibodies) came to 15%. Moreover, the progerin levels decreased in the experiment with HGPS fibroblasts [1] (9 days treatment with 1 µM) was 33%. Moreover, the “lamin A and lamin C levels” value in the experiment with HGPS fibroblasts [1] (long-term treatment) was “remained constant”. The “levels of progerin decrease” value in experiment [2] (day 4) is 18%; in experiment [2] (day 9), 35% and 35.6%. Also, the cell growth result in experiment [3] is recorded as “ameliorate cell growth”. Besides, the autophagy activity result in the experiment on HGPS fibroblasts [4] is reported as “increase”. In addition, the proteasome activity entry in the experiment on HGPS fibroblasts [5] is given as “increase”. Besides, in the experiment on HGPS fibroblasts [6], the ROS levels entry was “decrease”. In addition, the ATP levels result in the experiment on HGPS fibroblasts [7] is “increase”. Besides, in experiment [8] (both control and progerin mouse fibroblasts), the levels of autophagy entry is “increases”. In experiment [8] (progerin mouse fibroblast relative to mock-treated control cells), the “levels of autophagy increased” value is 39.9%.
